The record followed here is patent US4604378A, “Basic V1 -vasopressin antagonists” (SmithKline Beckman Corporation, priority 1984, dated 1986).

In experiment [1] the target is T1, V2 -vasopressin receptors (Sus scrofa, UniProt P32307).
T1 construct: Medullary pig kidney tissue; from tissue; host or cells: medullary pig (hog) kidney tissue
Nature of the experiment: V2-vasopressin receptor binding, inhibition of 3H-LVP binding, medullary pig kidney tissue. On the procedure: (§1) Antagonistic activity at the V1 -vasopressin receptors is determined in a protocol which measures the reversal of the vasopressin-induced contraction of rat thoracic aorta tissue. This is expressed as KB (nM) in the table below. Such anti-pressor activity is confirmed in a similar in vitro protocol using binding to the plasma membranes of rat liver. V2 -vasopressin antagonism is determined as receptor binding ability measured by inhibition of 3H-LVP binding (KB as nM), by inhibition of adenylate cyclase activation by vasopressin in the medullary tissue of hog kidneys (Ki as nM) or in vivo in the hydropenic rat protocol (ED300 μg/kg. These procedures are described in the literature: F. Stassen et al., J. Pharmacology and Experimental Therapeutics, 223 50 (1982); F. Stassen et al., lst International Conference on Diuretics, Miami, Fla., Mar. (1984). Antagonistic activity at oxytocin receptors is determined in the isolated rat uterus protocol: W. Sawyer, et al., Endocrinology 106 81 (1979); P. Melin, et al., J. of Endocrinology 88 173 (1981).
^a Medullary pig kidney tissue, […]

Experiment [2] concerns the target T2, V1 -vasopressin receptors (Rattus norvegicus, UniProt P30560).
T2 construct: Rat liver membrane; from tissue; host or cells: rat liver plasma membranes
Description: Reversal of vasopressin-induced contraction of rat thoracic aorta tissue. It counts as cell-based. As to conditions: rat aortic ring tissue. On the procedure:
as §1
^c Rat aortic ring tissue, […]

The target of experiment [3] is T3, oxytocin receptors (Rattus norvegicus, UniProt P70536).
T3 construct: Rat uterus; from tissue; host or cells: isolated rat uterus
T3 sequence (P70536 1-388): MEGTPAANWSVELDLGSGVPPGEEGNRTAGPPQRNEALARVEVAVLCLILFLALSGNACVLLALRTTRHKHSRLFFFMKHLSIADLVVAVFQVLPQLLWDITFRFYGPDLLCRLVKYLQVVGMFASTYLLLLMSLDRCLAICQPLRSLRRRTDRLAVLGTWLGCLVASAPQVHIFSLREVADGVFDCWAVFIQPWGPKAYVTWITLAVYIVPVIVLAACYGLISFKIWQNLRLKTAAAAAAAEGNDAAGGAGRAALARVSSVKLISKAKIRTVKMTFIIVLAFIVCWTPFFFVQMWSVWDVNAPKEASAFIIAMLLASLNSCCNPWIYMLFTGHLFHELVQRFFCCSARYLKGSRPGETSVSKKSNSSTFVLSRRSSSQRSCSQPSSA
Nature of the experiment: Isolated rat uterus protocol, oxytocin antagonism. Format: cell-based. As to conditions: read-out: Rat OXT KB. On the procedure: as §1

*1 amine or outer side, *2 acyl side, *3 side chain or, on linkers, in order; H or OH if unused. Where a SMILES comes first, the peptide text is derived from it. Bridges are numbered along the chain shown (N, C = ends). [ ]: non-standard residue; d: D form. The star is where a group is joined. X1 = CC(C)(CC(=O)[*:1])S[*:2]; NH(CH2)4NH2 = NCCCCN*; Mpa = O=C(O)CCS

T1 sequence (P32307 whole entry): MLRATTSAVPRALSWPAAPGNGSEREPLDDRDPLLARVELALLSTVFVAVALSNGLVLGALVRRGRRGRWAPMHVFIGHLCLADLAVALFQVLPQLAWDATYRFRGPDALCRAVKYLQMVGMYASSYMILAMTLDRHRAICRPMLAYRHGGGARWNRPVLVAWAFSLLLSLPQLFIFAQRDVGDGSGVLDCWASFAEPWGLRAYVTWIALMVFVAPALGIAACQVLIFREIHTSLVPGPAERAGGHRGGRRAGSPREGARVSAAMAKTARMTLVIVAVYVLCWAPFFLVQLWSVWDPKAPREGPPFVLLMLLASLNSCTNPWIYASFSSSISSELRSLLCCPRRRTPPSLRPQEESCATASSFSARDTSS
T2 sequence (P30560 whole entry): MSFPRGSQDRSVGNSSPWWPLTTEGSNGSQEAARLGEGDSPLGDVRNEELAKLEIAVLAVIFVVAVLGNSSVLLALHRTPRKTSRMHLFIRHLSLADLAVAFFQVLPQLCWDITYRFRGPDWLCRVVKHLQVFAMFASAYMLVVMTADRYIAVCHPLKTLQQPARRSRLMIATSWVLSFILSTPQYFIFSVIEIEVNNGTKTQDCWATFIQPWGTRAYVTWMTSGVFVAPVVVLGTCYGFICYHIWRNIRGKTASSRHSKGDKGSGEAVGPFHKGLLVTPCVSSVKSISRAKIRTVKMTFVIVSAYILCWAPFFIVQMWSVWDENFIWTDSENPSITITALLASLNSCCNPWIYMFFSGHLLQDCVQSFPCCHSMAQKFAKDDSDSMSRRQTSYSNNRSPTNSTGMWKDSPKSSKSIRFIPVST

As for `COc1ccc(C[C@@H]2NC(=O)CC(C)(C)SSC[C@@H](C(=O)N3CCC[C@H]3C(=O)NCCCCN)NC(=O)[C@H](CC(N)=O)NC(=O)[C@H](CCC(N)=O)NC(=O)[C@H](Cc3ccccc3)NC2=O)cc1` [A] (Y(Me)FQNCP-{NH(CH2)4NH2}; linker N-5 via X1), the Kb came to 8.6 µM in experiment [1], 0.00121 µM in experiment [2] and 0.00591 µM in experiment [3].

Consider `CCOc1ccc(C[C@H]2NC(=O)CCSSC[C@@H](C(=O)N3CCC[C@H]3C(=O)NCCCCN)NC(=O)[C@H](CC(N)=O)NC(=O)[C@H]([C@@H](C)O)NC(=O)[C@H]([C@@H](C)CC)NC2=O)cc1` [C] ([Mpa][dY](Et)ITNCP-{NH(CH2)4NH2}; disulfide 1-6), for which the Kb in experiment [1] stood at 5.7 µM; in experiment [3], 0.0016 µM.

With `CCOc1ccc(C[C@@H]2NC(=O)CCSSC[C@@H](C(=O)N[C@@H](CCCNC(=N)N)C(N)=O)NC(=O)[C@H](CC(N)=O)NC(=O)[C@H]([C@@H](C)O)NC(=O)[C@H]([C@@H](C)CC)NC2=O)cc1` [E] ([Mpa]Y(Et)ITNCR-NH2; disulfide 1-6), the results for the Kb in experiment [1] and in experiment [3] were 1.6 µM and 0.0114 µM, respectively.

Turning to `CCOc1ccc(C[C@@H]2NC(=O)CCSSC[C@@H](C(=O)N[C@@H](CCCNC(=N)N)C(=O)NCC(N)=O)NC(=O)[C@H](CC(N)=O)NC(=O)[C@H]([C@@H](C)O)NC(=O)[C@H]([C@@H](C)CC)NC2=O)cc1` [D] ([Mpa]Y(Et)ITNCRG-NH2; disulfide 1-6), the Kb in experiment [1] amounted to 4.1 µM; in experiment [3], 0.0177 µM.
